Test results published in patent US5380834A, “Immuno-suppressive agent” (Ishihara Sangyo Kaisha Ltd., priority 1992, dated 1995).
≈ marks a conversion by molar mass, not a printed value.

Legend:
murine thymocytes = assay: Effects on the mitogenic response by murine thymocytes (Con A stimulation, 3H-TdR uptake); assay type: cell-based, BALB/c murine; settings: Mus musculus, Thymocyte; BALB/c thymocytes, Con A 5 μg/ml, 48 hours, 3H-TdR uptake; read-out: IC50 value, a (mitogenic response of murine thymocytes)
Description: Using BALB/c murine thymocytes, the effect of the compound of the formula (I) on the mitogenic response of lymphocytes to the stimulation by concanavalin A (hereinafter referred to simply as Con A, Product No. L-1000, manufactured by Vector Laboratories) was studied. Namely, 4×10^5 murine thymocytes were cultured for 48 hours on a microplate with 96 wells in a RPMI1640 solution containing 10% of a fetal bovine serum (hereinafter referred to simply as a 10% FCS-RPMI solution) together with Con A (5 μg/ml) and the compound of the formula (I) (in an incubator, 5% CO2, at 37° C.). Then, 0.5 μCi of ^3 H-thymidine (hereinafter referred to simply as ^3 H-TdR) was added thereto, and the mixture was further cultured for 4 hours. Then, cells were collected by a cell harvester, and the radioactivity (dpm) of ^3 H-TdR uptaken into cells was measured. Such measured amounts of ^3 H-TdR uptaken into the cells were used as indices of the mitogenic response of the murine thymocytes, and the radioactivity at each concentration (from 0.001 to 1,000 μg/ml) of the compound of the formula (I) was compared with the control value treated solely by Con A, to calculate IC50 value. In these Tables 12 and 13, the results of murine thymocytes are shown by (a).
For the basic procedure of this test, reference was made to Selected methods in cellular immunology, p. 144-146 (translated by Katsuyuki Imai et al., published by Rikogakusha, (1982)).

[1] = tested on: murine mixed lymphocyte reaction (spleen cells of BALB/c and C57BL/6 mice); assay: Effects on the murine mixed lymphocyte reaction (3H-TdR uptake); assay type: cell-based; settings: Mus musculus, BALB/c + C57BL/6 spleen cells, 48 hours, read-out: IC50 value, b (murine mixed lymphocyte reaction)
Description: Using spleen cells of BALB/c and C57BL/6 mice, the effect of the compound of the formula (I) on the murine mixed lymphocyte reaction in both sides, was studied. Namely, spleen cells of both types of mice were mixed in an equal amount of 5×10^5 cells each, and the mixed cells were cultured together with the compound of the formula (I) for 48 hours on a microplate with 96 wells by a 10% FCS-RPMI solution (in an incubator, 5% CO2, at 37° C.). Then, 0.5 μCi of ^3 H-TdR was added thereto, and the mixture was further cultured for from 16 to 18 hours. Then, cells were collected by a cell harvester, and the radioactivity (dpm) of ^3 H-TdR uptaken into the cells, was measured. Such measured amounts of ^3 H-TdR uptaken into the cells were used as indices for the mixed lymphocyte reaction, and the radioactivity at each concentration (from 0.001 to 1,000 μg/ml) of the compound of the formula (I) was compared with the non-treated control value, to calculate the Ic50 value.
For the basic procedure for this test, reference was made to Selected methods in cellular immunology, p. 147-149 (translated by Katsuyuki Imai et al., published by Rikogakusha, (1982)).

murine bone mallow cells = assay: Effects on the murine bone mallow cells (proliferation, 3H-TdR uptake); assay type: cell-based, BALB/c mouse; settings: Mus musculus, bone marrow cells; 20% L929 culture supernatant, 48 hours, 3H-TdR uptake; Tables 12-15; read-out: IC50 value, c (murine bone mallow cells)
Description: Bone mallow cells were removed from the femur of a BALB/c mouse and suspended in a 10% FCS-RPMI solution. The cell suspension was put into a plastic Petri dish having a diameter of 10 cm and left to stand still (in an incubator, 5% CO2, at 37° C.). Two hours later, only floating cells were recovered, and adhesion cells were removed. 1×10^5 floating cells were cultured for 48 hours together with a 20% culture supernatant of L929 fibroblastoma and the compound of the formula (I) on a microplate with 96 wells by a 10% FCS-RPMI solution (in an incubator, 5% CO2, at 37° C.). Then, 0.5 μCi of ^3 H-TdR was added thereto, and the mixture was further cultured for 4 hours. Then, cells were collected by a cell harvester, and the radioactivity (dpm) of ^3 H-TdR uptaken into the cells, was measured. Such measured amounts of ^3 H-TdR uptaken into the cells were used as indices for the proliferation of bone mallow cells, and the radioactivity at each concentration (from 0.001 to 1,000 μg/ml) of the compound of the formula (I) was compared with the control value where the L929 culture supernatant was added alone, to calculate the IC50 value. In these Tables 12 and 13, the results of the bone mallow cells are shown by (c).
For the basic procedure of this test, reference was made to Seikagakujikken Koza compiled by Japan Biochemistry Association, Vol. 5, p. 266-270 (published by Tokyo Kagaku Dojin in 1986).

[2] = tested on: IgGl antibody production from murine spleen B cells; assay: Effects on the IgGl antibody production from murine spleen cells (LPS + IL4); assay type: cell-based, BALB/c mouse; settings: Mus musculus, B-cell, 168 h; spleen B cells, LPS 10 μg/ml, IL4 100 U/ml, 7 days, enzyme-immunoassay; read-out: IC50 value, IgGl antibody production
Description: (§1) Using murine spleen B cells, the effects of the compound of the formula (I) on the IgGl, IgM and IgE antibody production induced by the stimulation by LPS (lipopolysaccharide; Product No. 520.02051, manufactured by Wako Junyaku) and IL4 (interleukin 4), were studied. Namely, spleen cells of a BALB/c mouse were treated with a murine anti-Thy-1 antibody (obtained from Chiba University) and a rabbit complement (Product No. 3051, manufactured by cedarlane) to remove T cells, and 3×10^5 spleen B cells were cultured for 7 days together with 10 μg/ml of LPS, 100 U/ml of mouse-recombinant IL4 (Product No. MIL-4C, manufactured by Genzyme) and each concentration (from […]) of the compound of the formula (I) on a microplate with 96 wells by a 10% FCS-RPMI solution (in an incubator, 5% CO2, at 37° C.).
(§2) For the basic procedure of this test, reference was made to The Journal of Immunology, Vol. 136, p. 4538, (1986).
(§3) The amount of each antibody in the cell culture supernatant hereby obtained, was measured by the following enzyme-immunoassay. Firstly, on a microplate with 96 wells, 1 μg/ml of a rabbit anti-mouse IgGl antibody (Product No. 36243, manufactured by Cappel), 1 μg/ml of a goat anti-mouse IgM antibody (Product No. 0611-0201, manufactured by Cappel) or 10 μg/ml of a rat anti-mouse IgE monoclonal antibody (Product No. LO-ME-2, manufactured by Experimental Immunology) was coated (50 μl/well, at room temperature for 60 minutes), and then a nonspecific bond was blocked by a 0.1% bovine serum albumin-containing 10 mM sodium phosphate buffer (pH 7.2) (at room temperature for 60 minutes). Then, the above-mentioned cell culture supernatant or its diluted solution was added in an amount of 50 μl/well and reacted at room temperature for 60 minutes. Further, an alkaline phosphatase-labeled rabbit anti-mouse IgGl antibody (Product No. 61-0122, manufactured by Zymet) diluted 1,000 times, an alkaline phosphatase-labeled rabbit anti-mouse IgM antibody (Product No. 61-6822, manufactured by Zymet) diluted 2,000 times, or an alkaline phosphatase-labeled goat anti-mouse IgE antibody (Product No. PA-284, manufactured by Binding Site) diluted 500 times was added in an amount of 50 μl/well and reacted at room temperature for 60 minutes. 100 μl/well of a 10% diethanol amine buffer solution (pH 9.8) containing p-nitrophenyl phosphate as an enzyme substrate, was reacted, and the absorbance at 405 nm was measured. The amount of each antibody was calculated from the calibration curve of each standard antibody, and the IC50 value of the compound of the formula (I) on the antibody production was calculated using as the control value a value obtained in the absence of the compound of the formula (I).

[3] = tested on: IgM antibody production from murine spleen B cells; assay: Effects on the IgM antibody production from murine spleen cells (LPS + IL4); assay type: cell-based, BALB/c mouse; settings: Mus musculus, B-cell, 168 h; spleen B cells, LPS 10 μg/ml, IL4 100 U/ml, 7 days, enzyme-immunoassay; read-out: IC50 value, IgM antibody production
Description: as §1, §2, §3

[4] = tested on: IgE antibody production from murine spleen B cells; assay: Effects on the IgE antibody production from murine spleen cells (LPS + IL4); assay type: cell-based, BALB/c mouse; settings: Mus musculus, B-cell, 168 h; spleen B cells, LPS 10 μg/ml, IL4 100 U/ml, 7 days, enzyme-immunoassay; read-out: IC50 value, IgE antibody production
Description: as §1, §2, §3

Row | Structure (SMILES) | IC50 (murine thymocytes) [µg/mL] | IC50 [1] [µg/mL] | IC50 [2] [µg/mL] | IC50 [3] [µg/mL] | IC50 [4] [µg/mL] | IC50 (murine bone mallow cells) [µg/mL]
1 | O=C(O[C@H]1C=C[C@H]2CO[C@@H]1O2)c1ccccc1 [Compound 5] | 130 (≈ 560 µM) | 130 | 300 | 170 | 71 | 150 (≈ 646 µM)
2 | S=C(Oc1ccccc1)O[C@H]1C=C[C@H]2CO[C@@H]1O2 [Compound 26] | 44 (≈ 166 µM) | 20 | 23 | 110 | 4.5 | 200 (≈ 757 µM)
3 | O=C(CCCCCCCCCCCCCCCO)O[C@H]1C=C[C@H]2CO[C@@H]1O2 [Compound 49, 1,6-anhydro-3,4-dideoxy-2-O-(16-hydroxy)hexadecanoyl-β-D-threo-hex-3-enopyranose] | 11 (≈ 28.8 µM) | 32 | < 0.1 | 0.43 | < 0.1 | 41 (≈ 107 µM)
4 | O[C@@H]1C=C[C@H]2CO[C@@H]1O2 [Compound 103, 1,6-anhydro-3,4-dideoxy-β-D-erythro-hex-3-enopyranose] | 780 (≈ 6090 µM) | > 1000 | 0.45 | 1.3 | 2.1 | > 1000
5 | CCCCCC(=O)O[C@H]1C=C[C@H]2CO[C@@H]1O2 [Compound 6] | 250 (≈ 1100 µM) | 540 | 450 | 330 | 210 | 270 (≈ 1190 µM)
6 | O=C(O[C@H]1C=C[C@H]2CO[C@@H]1O2)C1CCCCC1 [Compound 4] | 450 (≈ 1890 µM) | 140 | 100 | 56 | 11 | 160 (≈ 671 µM)
7 | C/C=C/C(=O)O[C@H]1C=C[C@H]2CO[C@@H]1O2 [Compound 3] | 0.0044 (≈ 0.0224 µM) | 0.0044 | 2.4 | < 0.001 | 0.024 | 130 (≈ 663 µM)
8 | CCCCCCCCCCCCCCCC(=O)O[C@@H]1C=C[C@H]2CO[C@@H]1O2 [Compound 109] | 550 (≈ 1500 µM) | 740 | < 0.1 | 31 | < 0.1 | > 1000
9 | O=C(Oc1ccccc1)O[C@H]1C=C[C@H]2CO[C@@H]1O2 [Compound 22] | 300 (≈ 1210 µM) | 130 | 670 | 230 | 4 | > 1000
10 | CCCC[C@]1(O)C=C[C@H]2CO[C@@H]1O2 [Compound 30] | 110 (≈ 597 µM) | 540 | 190 | 150 | 24 | 190 (≈ 1030 µM)
11 | CC(C)(C)NC(=O)O[C@H]1C=C[C@H]2CO[C@@H]1O2 [Compound 25] | 0.32 (≈ 1.41 µM) | 430 | 0.0015 | 78 | 0.0034 | 340 (≈ 1500 µM)

Second part, led by results:

Row | IC50 (murine thymocytes) [µg/mL] | IC50 [1] [µg/mL] | IC50 [2] [µg/mL] | IC50 [3] [µg/mL] | IC50 [4] [µg/mL] | Structure (SMILES) | IC50 (murine bone mallow cells) [µg/mL]
12 | 130 (≈ 557 µM) | 480 | 220 | 78 | 320 | O=C(O[C@H]1C=C[C@H]2CO[C@@H]1O2)c1cccnc1 [Compound 15] | 310 (≈ 1330 µM)
13 | 320 (≈ 1740 µM) | 540 | 400 | 350 | 2.8 | CC(=O)O[C@@]1(C)C=C[C@H]2CO[C@@H]1O2 [Compound 32, 2-O-acetyl-1,6-anhydro-3,4-dideoxy-2-C-methyl-β-D-threo-hex-3-enopyranose] | 540 (≈ 2930 µM)
14 | 76 (≈ 535 µM) | 280 | 380 | 590 | 280 | C[C@]1(O)C=C[C@H]2CO[C@@H]1O2 [Compound 28] | 150 (≈ 1060 µM)
15 | 170 (≈ 845 µM) | 100 | 17 | 10 | 0.22 | CNC(=S)O[C@H]1C=C[C@H]2CO[C@@H]1O2 [Compound 24, 1,6-anhydro-3,4-dideoxy-2-O-methylthiocarbamoyl-β-D-threo-hex-3-enopyranose] | 620 (≈ 3080 µM)
16 | 49 (≈ 318 µM) | 180 | 34 | 36 | 24 | C=C[C@]1(O)C=C[C@H]2CO[C@@H]1O2 [Compound 27, 1,6-anhydro-3,4-dideoxy-2-C-vinyl-β-D-threo-hex-3-enopyranose] | 44 (≈ 285 µM)
17 | 42 (≈ 176 µM) | 13 | 10 | 0.89 | 3.7 | O=C(O[C@H]1C=C[C@H]2CO[C@@H]1O2)c1cccs1 [Compound 14] | 500 (≈ 2100 µM)
